Columns and labels:
[1] = Pharmacokinetics in ICR mouse; assay type: in vivo; conditions: male, plasma; for AUC(0-t): read-out: Curve area AUC0-t; for half-life: read-out: Half-life period T1/2(h) (converted)
Description: (§1) Taking an ICR mouse as a tested animal, the ICR mouse was administrated with the compound in Example 96 of the present invention by intravenous injection and intragastric administration, and drug concentrations in plasma at different times were determined by a LC/MS/MS method to study pharmacokinetic characteristics of the compound of the present invention in the mouse.
ICR mice, male, 29.2 g to 34.9 g, purchased from Beijing Vital River Laboratory Animal Technology Co., Ltd.
Preparation of drug administrated by intravenous injection: a proper amount of compound to be tested was added to a proper amount of DMAC: (30% Soltol HS 15): Saline=10%: 10%: 80% (v/v/v), and shaken in a vortex manner, so as to prepare a final solution with a concentration of 0.2 mg/mL.
Preparation of drug administrated by intragastric administration: a proper amount of compound to be tested was added to a proper amount of DMA: (30% Soltol HS 15): Saline=10%: 10%: 80% (v/v/v), and shaken in a vortex manner, so as to prepare a final solution with a concentration of 0.5 mg/mL.
ICR mice were divided into an intravenous injection group and an intragastric administration group (9 rats in single group).
Intravenous injection group: the drug was administrated by intravenous injection (according to a dosage of 1 mg/kg and a volume of 5 mL/kg) without fasting.
Intragastric administration group: the drug was administrated by intragastric administration (according to a dosage of 5 mg/kg and a volume of 10 mL/kg) after fasting overnight, and food was taken 4 hours after administration.
Intravenous injection group: about 80 μL of blood was collected into an EDTA-K2 anticoagulant tube through an orbit 0.083 hour, 0.25 hour, 0.5 hour, 1 hour, 2 hours, 4 hours, 8 hours, 12 hours and 24 hours after administration.
Intragastric administration group: about 80 μL of blood was collected through an orbit 0.25 hour, 0.5 hour, 1 hour, 2 hours, 4 hours, 8 hours, 12 hours and 24 hours before and after administration.
The whole blood sample was placed in an EDTA-K2 anticoagulant tube. Plasma was centrifugally separated (centrifugation conditions: 1,500 g, 10 minutes). The collected upper plasma was stored al −40° C. to −20° C. before analysis.
Contents of the compound to be tested in mouse plasma after intravenous and intragastric administration were determined by LC-MS/MS.

[2] = Pharmacokinetics in cynomolgus macaque; assay type: in vivo; conditions: male, cynomolgus monkey, plasma, po, intragastric administration 15 mg/kg
Description: as §1, with “a cynomolgus macaque” for “an ICR mouse”, “cynomolgus macaque” for “ICR mouse”, “by” for “by intravenous injection and”, “cynomolgus macaque.” for “mouse.”
Cynomolgus macaque, male, 4.6 kg to 5.7 kg, adult, purchased from Guangxi Fangcheng Gang Spring Biological Technology Development Corporation Ltd.
Preparation of drug administrated by intragastric administration: a proper amount of compound to be tested was added to a proper amount of DMAC: (30% Kolliphor HS 15): Saline=5%: 10%; 85% (v/v/v), and shaken in a vortex manner, so as to prepare a final solution with a concentration of 3 mg/mL.
Cynomolgus macaques were organized into one group, which was an intragastric administration group (3 cynomolgus macaques in single group).
Intragastric administration group: the drug was administrated by intragastric administration (according to a dosage of 15 mg/kg and a volume of 5 ml/kg) after fasting overnight, and food was taken 4 hours after administration.
Intragastric administration group: about 500 μL of blood was collected into an EDTA-K2 anticoagulant tube through a cephalic vein and a saphenous vein 0.25 hour, 0.5 hour, 1 hour, 2 hours, 4 hours, 8 hours and 24 hours after administration.
The blood sample was placed on wet ice first, and plasma was centrifugally separated within 15 minutes after sampling (centrifugation conditions: 2,000 g, 4° C., 5 minutes). The collected upper plasma was stored at −70° C. before analysis.
Contents of the compound to be tested in cynomolgus macaque plasma after intragastric administration were determined by LC-MS/MS.

[3] = target: T1, Native human Factor XIa protease (Homo sapiens, UniProt P03951); experiment: Inhibition of activity of Factor XIa protease (chromogenic substrate S-2366); assay type: biochemical; conditions: S-2366 1 mM, 37° C. 10 minutes, absorption at 405 nm
T1 construct: The Native human Factor XIa protease was purchased from Abcam; purchased Abcam ab62411
T1 sequence (P03951 388-625 limits assumed): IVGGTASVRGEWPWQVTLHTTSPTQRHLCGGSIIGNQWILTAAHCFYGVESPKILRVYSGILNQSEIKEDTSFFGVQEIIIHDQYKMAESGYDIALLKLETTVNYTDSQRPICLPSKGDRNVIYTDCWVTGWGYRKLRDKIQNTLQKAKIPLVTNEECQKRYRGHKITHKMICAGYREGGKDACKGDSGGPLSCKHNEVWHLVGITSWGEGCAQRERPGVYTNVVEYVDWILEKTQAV
T1 sequence (P03951 19-387 partner limits assumed): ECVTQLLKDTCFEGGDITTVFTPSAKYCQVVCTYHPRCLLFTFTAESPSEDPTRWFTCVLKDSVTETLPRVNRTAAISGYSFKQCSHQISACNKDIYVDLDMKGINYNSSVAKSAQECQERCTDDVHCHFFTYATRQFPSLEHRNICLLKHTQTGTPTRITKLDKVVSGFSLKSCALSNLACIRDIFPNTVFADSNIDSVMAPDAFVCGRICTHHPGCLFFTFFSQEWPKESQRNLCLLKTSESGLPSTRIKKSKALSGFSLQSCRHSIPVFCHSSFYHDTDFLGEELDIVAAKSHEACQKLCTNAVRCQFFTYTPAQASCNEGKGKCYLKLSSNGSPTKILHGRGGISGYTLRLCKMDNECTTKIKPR
Procedure, shortened: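 Native human Factor XIa (final […]) in 100 mM Tris-HCl, 200 mM NaCl, 0.02% Tween 20, pH 7.4, preincubated with compound 5 min on ice; 1 mM S-2366 added, 10 min at 37° C. Absorbance at 405 nm versus 0.1% DMSO control; IC50 by nonlinear regression, compound 10,000 nM to […] final.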

[4] = iv, injection administration 1 mg/kg
[5] = po, intragastric administration 5 mg/kg

Question: With `COCC[C@@H](C(=O)Nc1ccc2nn(C)cc2c1)N1CC(=O)N(c2cc(Cl)ccc2-n2cc(Cl)nn2)CC1=O` [Example 96, (S)-2-(4-(5-chloro-2-(4-chloro-1H-1,2,3-triazol-1-yl)phenyl)-2,5-dioxopiperazin-1-yl)-4-methoxy-N-(2-methyl-2H-indazol-5-yl)butanamide] as the compound, how does the AUC(0-t) [1, 4] read?
Answer: 1.24 µg·h/mL

Question: What about the half-life [1, 4] of the same compound?
Answer: 0.664 h

Question: And the bioavailability ([1]; po, intragastric 5 mg/kg vs injection 1 mg/kg, read-out: Bioavailability F(%))?
Answer: 69.8%

Question: What about the Cmax ([1]; po, intragastric administration 5 mg/kg, read-out: Blood concentration Cmax) of the same compound?
Answer: 2.04 µg/mL

Question: And the AUC(0-t) [1, 5]?
Answer: 4.33 µg·h/mL

Question: And the half-life [1, 5]?
Answer: 1.84 h

Question: What about the Cmax ([2]; read-out: Blood concentration Cmax) of the same compound?
Answer: 0.834 ± 0.482 µg/mL

Question: What about the AUC(0-t) ([2]; read-out: Curve area AUC0-t) of the same compound?
Answer: 4.21 ± 1.25 µg·h/mL

Question: What about the half-life ([2]; read-out: Half-life period T1/2(h) (converted)) of the same compound?
Answer: 3.71 ± 0.42 h

Question: And the IC50 [3]?
Answer: 42.8 nM
